In assay [1] the test system is MDA-MB-231. In words: Growth inhibition of Homo sapiens (human) MDA-MB-231 cells after 48 hr by MTT assay. The assay is classed as functional, cell-based.
The test system of assay [2] is MCF7. In words: Growth inhibition of Homo sapiens (human) MCF7 cells after 48 hr by MTT assay. It counts as functional, cell-based.
For assay [3], the system named is HeLa. As to the kind of experiment: Growth inhibition of Homo sapiens (human) HeLa cells after 48 hr by MTT assay. The assay is classed as functional, cell-based.
The subject of assay [4] is HL-60. In words: Growth inhibition of Homo sapiens (human) HL60 cells after 48 hr by MTT assay. The assay is classed as functional, cell-based. The note with it: HL-60, 48 h.
Assay [5] deals with Raji. In words: Growth inhibition of Homo sapiens (human) Raji cells after 48 hr by MTT assay. The assay is classed as functional, cell-based.
For assay [6], the system named is MDA-MB-231. As to the kind of experiment: Anticancer activity against Homo sapiens (human) MDA-MB-231 cells assessed as cell viability at 50 uM after 48 hr by MTT assay (reference value: 100%). It counts as functional. The note with it: MDA-MB-231, 48 h, read-out: Activity.
For assay [7], the system named is HeLa. As to the kind of experiment: Anticancer activity against Homo sapiens (human) HeLa cells assessed as cell viability at 50 uM after 48 hr by MTT assay (reference value: 100%). The assay is classed as functional. The note with it: read-out: Activity.
The subject of assay [8] is MCF7. As to the kind of experiment: Anticancer activity against Homo sapiens (human) MCF7 cells assessed as cell viability at 50 uM after 48 hr by MTT assay (reference value: 100%). It counts as functional. Conditions: MCF7, 48 h, read-out: Activity.
In assay [9] the test system is HL-60. As to the kind of experiment: Anticancer activity against Homo sapiens (human) HL60 cells assessed as cell viability at 50 uM after 48 hr by MTT assay (reference value: 100%). It counts as functional. Conditions: HL-60, 48 h, read-out: Activity.

Activity calls are given as the source filed them. The rule behind the calls is not given here.

Regarding `COc1ccc(OC(=O)c2cn(-c3ccccc3)nc2-c2ccsc2)cc1`, the “growth inhibition (GI)” value in assay [1], in [2] and in assay [3] was “inactive” in each case. For the same molecule, the half-maximal inhibitory concentration (IC50) in assay [4] and in assay [5] was above 100 µM in each case.
With `O=C(Oc1ccc(-c2ccccc2)cc1)c1cn(-c2ccccc2)nc1-c1ccsc1`, the “growth inhibition (GI)” value in assay [1], in assay [2] and in [3] was “inactive” each time. The IC50 in assay [4] and in assay [5] was above 100 µM in each case.
Turning to `CC(C)c1cccc(OC(=O)c2cn(-c3ccccc3)nc2-c2ccsc2)c1`, the “growth inhibition (GI)” value in assay [1], in [2] and in assay [3] was “inactive” each time. Also, the IC50 in assay [4] and in [5] was above 100 µM throughout.
With `O=C(c1cn(-c2ccccc2)nc1-c1ccsc1)N1CCN(c2ccncc2)CC1`, the viability at 50 µM in assay [6] came out at 87.4%. For the same molecule, the half-inhibitory concentration (IC50) in [4] and in assay [5] was above 100 µM throughout.
On to `O=C(c1cn(-c2ccccc2)nc1-c1ccsc1)N1CCN(c2ccccc2)CC1`, for which the viability at 50 µM in assay [6] was found to be 81.4%; in assay [7], 67.9%.
Turning to `O=C(c1cn(-c2ccccc2)nc1-c1ccsc1)N1CCOCC1`, the viability at 50 µM in assay [6] was determined as 77.6%. The concentration for half-maximal inhibition (IC50) in [4] and in assay [5] was above 100 µM throughout.
`O=C(c1cn(-c2ccccc2)nc1-c1ccsc1)N1CCN(c2ccc(C(F)(F)F)cc2)CC1`: the viability at 50 µM stood at 84.2% in assay [6], 80.7% in assay [7] and 85.9% in assay [8]. Further, the GI50 came to 36.7 µM in [4] and 32 µM in assay [5].
As for `O=C(NCc1ccccc1)c1cn(-c2ccccc2)nc1-c1ccsc1`, the viability at 50 µM in assay [6] turned out to be 85%; in [7] it was 82.3%.
Consider `O=C(Oc1ccc2ccccc2c1)c1cn(-c2ccccc2)nc1-c1ccsc1`, for which the “growth inhibition (GI)” value in assay [1], in assay [2] and in assay [3] was “inactive” in each case. In addition, the IC50 in assay [4] and in assay [5] was above 100 µM in each case.
As for `O=C(c1cn(-c2ccccc2)nc1-c1ccsc1)N1CCC(Cc2ccccc2)CC1`, the viability at 50 µM in assay [6] came to 82.8%; in [9] it was 39.1%; in assay [7], 71.8%; in assay [8], 90.7%. Besides, the GI50 in [4] was determined as 28.3 µM; in assay [5], 25.2 µM.
On to `CN1CCN(C(=O)c2cn(-c3ccccc3)nc2-c2ccsc2)CC1`, for which the IC50 in assay [4] and in assay [5] was above 100 µM in each case.
As for `CCc1ccc(OC(=O)c2cn(-c3ccccc3)nc2-c2ccsc2)cc1`, the “growth inhibition (GI)” value in assay [1], in [2] and in assay [3] was “inactive” throughout. In addition, the half-inhibitory concentration (IC50) in assay [4] and in assay [5] was above 100 µM each time.
In the case of `O=C(O)c1cn(-c2ccccc2)nc1-c1ccsc1`, in assay [6], the viability at 50 µM worked out at 80.9%. Besides, the IC50 in assay [4] and in [5] was above 100 µM in each case.
Consider `Cc1cccc(C(C)C)c1OC(=O)c1cn(-c2ccccc2)nc1-c1ccsc1`, for which the “growth inhibition (GI)” value in assay [1], in assay [2] and in assay [3] was “inactive” in each case. Also, the 50% inhibitory concentration (IC50) in [4] and in [5] was above 100 µM throughout.

Values taken from ChEMBL document CHEMBL3045075, “Synthesis of ester and amide derivatives of 1-phenyl-3-(thiophen-3-yl)-1H-pyrazole-4-carboxylic acid and study of their anticancer activity” (Med Chem Res, 2013).
